Key:
[1] = test system: human embryonic stem cell line HS420; experiment: Dopaminergic differentiation of hESC with ALK inhibitors in the 3D-AirLiwell protocol, q-PCR after 2 and 4 weeks; assay type: cell-based; settings: HS420, 3D-AirLiwell, q-PCR at 2 and 4 weeks; for activity with respect to general neural differentiation, compared to LDN/SB (dual smad inhibition): exposed from day 0 during one week at 0.2 μM and 0.8 μM; for effect on dopaminergic differentiation, compared to LDN/SB: exposed from day 0 during one week at 0.2 M and 0.8 M
Experimental: FIG. 22. Dopaminergic differentiation adding Alk-I compounds in 3D-Ali protocol. The concentrations of the compounds tested were 0.2 μM and 0.8 μM.
FIG. 23A-D. Quantitative PCR results: Dopaminergic differentiation adding Alk-I compounds in 3D-Ali protocol. Shown are qPCR results at week 2 and week 4 for (A) Ki-67 and Nestin; (B) Pax6 and B3-Tub; (C) Lmx1a and Nurr-1; and (D) Map-2 and TH. The data in FIGS. 23A-D shown in each group of 12 bars represents, from left to right: 1: Control day 0, 2: LDN193189/SB431542, 3: DMSO 0.2 μM, 4: DMSO 0.8 μM, 5: DMH1 0.2 μM, 6: DMH2 0.2 μM, 7: A-8301 0.2 μM, 8: K02288 0.2 μM, 9: DMH1 0.8 μM, 10: DMH2 0.8 μM, 11: A-8301 0.8 μM, 12: K02288 0.8 μM. The 11 bars in the bottom bar graph in FIG. 23D represent data, from left to right, from: 1: Control day 0, 2: LDN193189/SB431542, 3: DMSO 0.2 μM, 4: DMSO 0.8 μM, 5: DMH1 0.2 μM, 6: DMH2 0.2 μM, 7: A-8301 0.2 μM, 8: K02288 0.2 μM, 9: DMH1 0.8 μM, 10: DMH2 0.8 μM, and 11: A-8301 0.8 μM.
For neural differentiation, 2200 human pluripotent stem cells per microwell in supplemented X-VIVO medium were deposited on a substrate material consisting in molded microwells on an insert in air-liquid interface (720 microwells per well). In order to correctly distribute the cells in each microwell, the substrate material is gently shacked and put on a stable support for 15 min. Supplemented X-VIVO medium was added under the insert. Medium from the cell suspension added on the microwells, was then removed by aspiration with a 0.5×16 mm needle and spheroids are just covered by a thin film (10) of residual medium before incubation of the plate at 37° C. for 24 hours.
24 hours after spheroids formation, culture medium under the insert is replaced with fresh medium made by a combination of half X-VIVO and half Neurobasal medium without ROCK inhibitor supplemented with 1% of penicillin/streptomycin, 1% Non-essential amino-acids, 1% B-27 supplement (Thermofisher), L-Glutamin, 0.5 μM of SB431542, 10 μM LDN193189 (dual-SMAD inhibition cocktail), 100 ng/ml of SHH, 2 μM of Purmorphamin and 100 ng/ml FGF-8. Spheroids are then cultured in their individualized microwells in a conventional incubator at 37° C. and 5% C02. At day 3, 3 μM of CHIR99021 was added. The neurobasal medium replaced progressively the X-VIVO medium. At day 8, medium is replaced by Neurobasal medium supplemented with 1% of penicillin/streptomycin, 1% Non-essential amino-acids, 1% B-27 supplement, 3 μM of CHIR99021, 0.5 mM of cAMP, […], […], 5 ng/mL of FGF20, 1 ng/mL of TGF-B3 and 1 μM of Compound E. At day 13 CHIR99021 is removed. NB: for each medium exchange, the half of medium was refreshed, using 0.5 ml per well.
For qRT-PCR, RNA was extracted from dopaminergic neurospheres cultivated in immersion (3D-i) and in air-liquid culture interface (3D-ALi) derived from 3 different cell batches of HS420 cells. The time points for RNA extraction were days: 3, 8, 15, 22, 29, 43, 57. Total RNA isolation was performed using the Qiagen RNeasy kit according to the manufacturer's instructions. RNA concentration was determined by a spectrometer (Thermo Scientific™ NanoDrop 2000) and RNA quality was verified by the 2100 Bioanalyzer (Agilent). Quantitative PCR was performed with Tecan Freedom Evo by using SYBR green fluorescence. cDNA was produced from RNA by using the prime script RT reagent kit (Takara). All primers were diluted at a concentration of […], and a master mix was used (Power SYBR Green Master Mix, Thermo Fisher Scientific). To perform the RNA-sequencing, the same RNA used in qPCR, were used to analyze the gene expression at week 6 (=day 43) of differentiation. […]

[2] = test system: dopaminergic neurospheres; experiment: Effects of antioxidants on three-dimensional dopaminergic neuron differentiation (3D-Ali); assay type: cell-based, human; settings: 3D-Ali neurospheres cultured with anti-oxidant (FIG. 21B)
Description: FIG. 20. Protocol design with the addition of anti-oxidants. FIG. 21A-B. Effects of DA maturation with the additional of anti-oxidants. […] The inventors also tested the effects of different antioxidants on three-dimensional dopaminergic neuron differentiation. […] Most of the tested anti-oxidants diminish TH expression during dopaminergic neuron differentiation.

[3] = test system: dopaminergic neurospheres; experiment: Effect of laminin and hypoxia on dopaminergic maturation of neurospheres; assay type: cell-based, human; settings: 2.5% and 10% laminin; normoxia (20% oxygen) or hypoxia (3% oxygen); day 29
Description: FIG. 17. Experimental design and engineering of maturation protocol.
FIG. 18. Effect of hypoxia and laminin on dopaminergic maturation.
To improve the maturation step, 2.5% or 10% of Laminin 511 (Takkara) or Geltrex® (A growth factors reduced extracellular matrix, ThermoFisher) will be added into the cell culture medium to promote neuronal maturation of spheroids starting from day 1 of differentiation to the end and from day 13 to the end. RGD peptides could also be tested to enhance maturation, by adding them to the culture medium similarly to laminin or geltrex.
The inventors tested whether the additional of an extracellular matrix and/or hypoxia could improve the development of mature neurons. 2.5% and 10% laminin and normoxia (20% oxygen) or hypoxia (3% oxygen) was tested (FIG. 17). […] It was further hypothesized that other changes to the cell culture, such as modification of the volume of the cell culture medium could provide for an improvement in the maturation of neurons. […] In AirLiwell (6 well plate), a seeding 1.5 million cells per well (6 well AirLiwell plate) yields 2350 neurospheres.

## Cc1cccc(-c2nn(C(=S)Nc3ccccc3)cc2-c2ccnc3ccccc23)n1 [A-8301, 3-(6-Methyl-2-pyridinyl)-N -phenyl-4-(4-quinolinyl)-1H -pyrazole-1-carbothioamide]
[1]
  activity with respect to general neural differentiation, compared to LDN/SB (dual smad inhibition): activity comparable to LDN/SB
  effect on dopaminergic differentiation, compared to LDN/SB: no major effects

## CC(C)Oc1ccc(-c2cnc3c(-c4ccnc5ccccc45)cnn3c2)cc1 [DMH1, 4-[6-[4-(1-Methylethoxy)phenyl]pyrazolo[1,5-a]pyrimidin-3-yl]-quinoline]
[1]
  activity with respect to general neural differentiation, compared to LDN/SB (dual smad inhibition): activity comparable to LDN/SB
  effect on dopaminergic differentiation, compared to LDN/SB: roughly equipotent as compared to LDN/SB

## c1ccc2c(-c3cnn4cc(-c5ccc(OCCN6CCOCC6)cc5)cnc34)ccnc2c1 [DMH2, 4-[6-[4-[2-(4-Morpholinyl)ethoxy]phenyl]pyrazolo[1,5-a]pyrimidin-3-yl]quinoline]
[1]
  activity with respect to general neural differentiation, compared to LDN/SB (dual smad inhibition): activity comparable to LDN/SB
  effect on dopaminergic differentiation, compared to LDN/SB: roughly equipotent as compared to LDN/SB

## COc1cc(-c2cc(-c3cccc(O)c3)cnc2N)cc(OC)c1OC [K02288]
[1]
  activity with respect to general neural differentiation, compared to LDN/SB (dual smad inhibition): activity comparable to LDN/SB
  effect on dopaminergic differentiation, compared to LDN/SB: no major effects

## O=C1O[C@H]([C@@H](O)CO)C(O)=C1O [ascorbic acid]
[2]
  DA neuron differentiation: marked enhancement

## laminin
[3]
  effect on maturation of dopaminergic neurons: did not provide any apparent effect
